In this assay the test system is Cell Necrosis. The assay can be described thus: Cell necrosis assay / cell viability assay (necrosis inhibitor activity). Type of assay: cell-based. As to conditions: necrosis inhibitor activity, read-out: EC50.
Where [1] appears, read: EC data for 14-191 extrapolated.

Where two headings read alike, the source gives them in different places.

Usually EC50 stands for the midpoint of the concentration-response curve. Turning to `O=C(N1CC(Oc2cc3[nH]nc(F)c3cc2F)C1)N1N=CC[C@H]1c1cc(F)cc(F)c1` [Compound 376, (S)-(3-((3,5-difluoro-1H-indazol-6-yl)oxy)azetidin-1-yl)(5-(3,5-difluorophenyl)-4,5-dihydro-1H-pyrazol-1-yl)methanone], the EC50 (compounds outside 14-191) lay within 1 to 1000 nM.

As to `O=C(N1CC(Oc2ccc3oc(=O)[nH]c3c2)C1)N1N=CCC1c1cc(F)cc(F)c1` (stereo not drawn) [Compound 185], the concentration giving a half-maximal response (EC50) under setting [1] was 1 to 1000 nM.

As for `N#CCCNc1ncc(F)c(OC2CN(C(=O)N3N=CC[C@H]3c3cc(F)cc(F)c3)C2)n1` [Compound 269, (S)-3-((4-((1-(5-(3,5-fluorophenyl)-4,5-dihydro-1H-pyrazole-1-carbonyl)azetidin-3-yl)oxy)-5-fluoropyrimidin-2-yl)amino)propanenitrile], the EC50 (compounds outside 14-191) was 1 to 1000 nM.

For `CC1Oc2ccc(OC3CN(C(=O)N4N=CC[C@H]4c4ccccc4)C3)cc2NC1=O` (stereo partly drawn) [Compound 355, 2-methyl-6-((1-((S)-5-phenyl-4,5-dihydro-1H-pyrazole-1-carbonyl)azetidin-3-yl)oxy)-2H-benzo[b][1,4]oxazin-3(4H)-one], the EC50 (compounds outside 14-191) lay in the range of 1 to 1000 nM.

For `N#Cc1nc(O[C@@H]2CCN(C(=O)N3N=CC[C@H]3c3cc(F)cc(F)c3)C2)ccc1Cl` [Compound 339, 3-chloro-6-(((R)-1-((S)-5-(3,5-difluorophenyl)-4,5-dihydro-1H-pyrazole-1-carbonyl)pyrrolidin-3-yl)oxy)picolinonitrile], the EC50 (compounds outside 14-191) is 1 to 1000 nM.

With `O=C(NC1CCCCC1)N1N=CCC1c1ccccc1` (stereo not drawn) [Compound 10, N-cyclohexyl-5-phenyl-4,5-dihydro-1H-pyrazole-1-carboxamide], under “compounds outside 14-191”, the EC50 lay in the range of 1000 to 10000 nM.

Take `O=C1Cc2cnc(N3CCN(C(=O)N4N=CC[C@H]4c4cc(F)cc(F)c4)CC3)nc2N1` [Compound 386, (S)-2-(4-(5-(3,5-difluorophenyl)-4,5-dihydro-1H-pyrazole-1-carbonyl)piperazin-1-yl)-5,7-dihydro-6H-pyrrolo[2,3-d]pyrimidin-6-one]: for the setting “compounds outside 14-191”, the EC50 is 1 to 1000 nM.

For `N#Cc1cccc([C@@H]2CC=NN2C(=O)N2CC(Oc3cc4c(cc3F)OCC(=O)N4)C2)c1` [Compound 195], the EC50 (compounds outside 14-191) lay within 1 to 1000 nM.

`O=C(N1CC(Oc2ccc(-c3ncc[nH]3)cc2)C1)N1N=CCC1c1cc(F)cc(F)c1` (stereo not drawn) [Compound 166]: the EC50 under setting [1] was 1 to 1000 nM.

As for `O=C(N1CCCCC1)N1N=CCC1c1ccccc1` (stereo not drawn) [Compound 7, (5-phenyl-4,5-dihydro-1H-pyrazol-1-yl)(piperidin-1-yl)methanone], the EC50 (compounds outside 14-191) lay in the range of 1 to 1000 nM.

As for `N#Cc1cncc(C2CC=NN2C(=O)N2CC(Oc3cc4[nH]nc(F)c4cc3F)C2)c1` (stereo not drawn) [Compound 381, 5-(1-(3-((3,5-difluoro-1H-indazol-6-yl)oxy)azetidine-1-carbonyl)-4,5-dihydro-1H-pyrazol-5-yl)nicotinonitrile], the EC50 (compounds outside 14-191) was in the range of 1 to 1000 nM.

With `CNC(=O)c1cc(OC2CN(C(=O)N3N=CCC3c3cc(F)cc(F)c3)C2)ccc1F` (stereo not drawn) [Compound 162], the EC50 under setting [1] is 1 to 1000 nM.

For the compound `CC1CCCCN1C(=O)N1N=CCC1c1ccccc1` (stereo not drawn) [Compound 8, (2-methylpiperidin-1-yl)(5-phenyl-4,5-dihydro-1H-pyrazol-1-yl)methanone], the EC50 (compounds outside 14-191) is 1000 to 10000 nM.

For `O=C1COc2ccc(OC3CN(C(=O)N4N=CC[C@H]4c4cc(F)cc(F)c4)C3)cc2N1` [Compound 201, (S)-6-((1-(5-(3,5-difluorophenyl)-4,5-dihydro-1H-pyrazole-1-carbonyl)azetidin-3-yl)oxy)-2H-benzo[b][1,4]oxazin-3(4H)-one], the EC50 (compounds outside 14-191) is 1 to 1000 nM.

Take `NC(=O)c1cnc(OC2CN(C(=O)N3N=CC[C@H]3c3cc(F)cc(F)c3)C2)s1` [Compound 280, (S)-2-((1-(5-(3,5-difluorophenyl)-4,5-dihydro-1H-pyrazole-1-carbonyl)azetidin-3-yl)oxy)thiazole-5-carboxamide]: where the note is “compounds outside 14-191”, the EC50 was 1 to 1000 nM.

As to `O=C(N1CCCN(c2ncc(F)cn2)CC1)N1N=CCC1c1ccccc1` (stereo not drawn) [Compound 96, (4-(5-fluoropyrimidin-2-yl)-1,4-diazepan-1-yl)(5-phenyl-4,5-dihydro-1H-pyrazol-1-yl)methanone], under setting [1], the EC50 was 1000 to 10000 nM.

As for `O=C(N1CC(=Cc2ccc(F)cc2F)C1)N1N=CCC1c1cncc(F)c1` (stereo not drawn) [Compound 308, (3-(2,4-difluorobenzylidene)azetidin-1-yl)(5-(5-fluoropyridin-3-yl)-4,5-dihydro-1H-pyrazol-1-yl)methanone], the EC50 (compounds outside 14-191) lay within 1 to 1000 nM.

As for `N#Cc1cnc2ccc(O[C@@H]3CCN(C(=O)N4N=CC[C@H]4c4cc(F)cc(F)c4)C3)nn12` [Compound 240, 6-(((R)-1-((S)-5-(3,5-difluorophenyl)-4,5-dihydro-1H-pyrazole-1-carbonyl)pyrrolidin-3-yl)oxy)imidazo[1,2-b]pyridazine-3-carbonitrile], for the setting “compounds outside 14-191”, the EC50 lay within 1 to 1000 nM.

As for `CNC(=O)c1csc(OC2CN(C(=O)N3N=CCC3c3cc(F)cc(F)c3)C2)n1` (stereo not drawn) [Compound 171], the EC50 under setting [1] is 1 to 1000 nM.

For `C[C@H]1CN(c2ncc(Cl)cn2)CCN1C(=O)N1N=CCC1c1ccccc1` (stereo partly drawn) [Compound 113B, ((S)-4-(5-chloropyrimidin-2-yl)-2-methylpiperazin-1-yl)(5-phenyl-4,5-dihydro-1H-pyrazol-1-yl)methanone], under setting [1], the EC50 is 1000 to 10000 nM.

For `O=C(N1CC(Oc2ccc(F)cc2F)C1)N1N=CC[C@H]1c1cc(F)cc(F)c1` [Compound 142], under setting [1], the EC50 is 1 to 1000 nM.

With `O=C(NC1CCCC1)N1N=CCC1c1ccccc1` (stereo not drawn) [Compound 5, N-cyclopentyl-5-phenyl-4,5-dihydro-1H-pyrazole-1-carboxamide], the EC50 (compounds outside 14-191) lay in the range of 1 to 1000 nM.

In the case of `O=C(O)c1cc2sc(OC3CN(C(=O)N4N=CC[C@H]4c4cc(F)cc(F)c4)C3)nc2[nH]1` [Compound 259, (S)-2-((1(5-(3,5-difluorophenyl)-4,5-dihydro-1H-pyrazole-1-carbonyl)azetidin-3-yl)oxy)-4H-pyrrolo[2,3-d]thiazole-5-carboxylic acid], for the setting “compounds outside 14-191”, the EC50 was in the range of 1 to 1000 nM.

As for `O=C(N1CC(Oc2ccc(F)nc2F)C1)N1N=CC[C@H]1c1cc(F)cc(F)c1` [Compound 145], the EC50 under setting [1] is 1 to 1000 nM.

Regarding `O=C(N1CC(Oc2ccc3ccc(=O)[nH]c3c2F)C1)N1N=CC[C@H]1c1cc(F)cc(F)c1` [Compound 208, (S)-7-((1(5-(3,5-difluorophenyl)-4,5-dihydro-1H-pyrazole-1-carbonyl)azetidin-3-yl)oxy)-8-fluoroquinolin-2(1H)-one], under “compounds outside 14-191”, the EC50 was 1 to 1000 nM.

As to `O=C(N1CC(Cc2cccc(O)c2)C1)N1N=CCC1c1ccccc1` (stereo not drawn) [Compound 44, (3-(3-hydroxybenzyl)azetidin-1-yl)(5-phenyl-4,5-dihydro-1H-pyrazol-1-yl)methanone], the EC50 under setting [1] is 1000 to 10000 nM.

As for `O=C(N1CC[C@H](Oc2ccccc2)C1)N1N=CCC1c1ccccc1` (stereo partly drawn) [Compound 27B, ((S)-3-phenoxypyrrolidin-1-yl)(S-phenyl-4,5-dihydro-1H-pyrazol-1-yl)methanone], the EC50 under setting [1] was 1 to 1000 nM.

Consider `NC(=O)c1cccc(OC2CN(C(=O)N3N=CCC3c3cc(F)cc(F)c3)C2)c1` (stereo not drawn) [Compound 129, 3-((1-(5-(3,5-difluorophenyl)-4,5-dihydro-1H-pyrazole-1-carbonyl)azetidin-3-yl)oxy)benzamide], for which the 50% effective concentration (EC50) under setting [1] is 1 to 1000 nM.

On to `O=C(N1CC(=Cc2cc3[nH]nc(F)c3cc2F)C1)N1N=CCC1c1ccccc1` (stereo not drawn) [Compound 302, (3-((3,5-difluoro-1H-indazol-6-yl)methylene)azetidin-1-yl)(5-phenyl-4,5-dihydro-1H-pyrazol-1-yl)methanone], for which the EC50 (compounds outside 14-191) fell in the range of 1 to 1000 nM.

With `O=C(N1CCN(c2cccnn2)CC1)N1N=CCC1c1ccccc1` (stereo not drawn) [Compound 89, (5-phenyl-4,5-dihydro-1H-pyrazol-1-yl)(4-(pyridazin-3-yl)piperazin-1-yl)methanone], the EC50 under setting [1] was 1000 to 10000 nM.

Take `O=C(N1CCN(c2nccs2)CC1)N1N=CCC1c1ccccc1` (stereo not drawn) [Compound 92, (5-phenyl-4,5-dihydro-1H-pyrazol-1-yl)(4-(thiazol-2-yl)piperazin-1-yl)methanone]: the EC50 under setting [1] was 1 to 1000 nM.

As to `CC(C)C(=O)Nc1nc(N2CCN(C(=O)N3N=CC[C@H]3c3cc(F)cc(F)c3)CC2)ncc1F` [Compound 292, (S)—N-(2-(4-(5-(3,5-difluorophenyl)-4,5-dihydro-1H-pyrazole-1-carbonyl)piperazin-1-yl)-5-fluoropyrimidin-4-yl)isobutyramide], where the note is “compounds outside 14-191”, the EC50 lay within 1 to 1000 nM.

In the case of `C[C@@H]1CN(c2ncc(F)cn2)C[C@H](C)N1C(=O)N1OCC[C@H]1c1ccccc1` [Compound 110, ((2R,6S)-4-(5-fluoropyrimidin-2-yl)-2,6-dimethylpiperazin-1-yl)((S)-3-phenylisoxazolidin-2-yl)methanone], the EC50 under setting [1] is 1 to 1000 nM.

As for `O=C(N1CC(Cc2ccc(F)cc2F)C1)N1N=CCC1c1cccc(F)c1` (stereo not drawn) [Compound 53, (3-(2,4-difluorobenzyl)azetidin-1-yl)(5-(3-fluorophenyl)-4,5-dihydro-1H-pyrazol-1-yl)methanone], under setting [1], the EC50 was 1 to 1000 nM.

Consider `O=C(N1CC(=Cc2ccc(F)nc2)C1)N1N=CCC1c1cc(F)cc(F)c1` (stereo not drawn) [Compound 305, (5-(3,5-difluorophenyl)-4,5-dihydro-1H-pyrazol-1-yl)(3-((6-fluoropyridin-3-yl)methylene)azetidin-1-yl)methanone], for which, under “compounds outside 14-191”, the EC50 fell in the range of 1 to 1000 nM.

On to `N#Cc1cncc([C@@H]2CC=NN2C(=O)N2CC(Oc3cc4c(cc3F)OCC(=O)N4)C2)c1` [Compound 197, (S)-5-(1(3-((7-fluoro-3-oxo-3,4-dihydro-2H-benzo[b][1,4]oxazin-6-yl)oxy)azetidine-1-carbonyl)-4,5-dihydro-1H-pyrazol-5-yl)nicotinonitrile], for which the EC50 (compounds outside 14-191) was 1 to 1000 nM.

`O=C(N1CC(=Cc2ccc3oc(=O)[nH]c3c2)C1)N1N=CC[C@H]1c1cc(F)cc(F)c1` [Compound 311, (S)-5-((1(5-(3,5-difluorophenyl)-4,5-dihydro-1H-pyrazole-1-carbonyl)azetidin-3-ylidene)methyl)benzo[d]oxazol-2(3H)-one]: the EC50 (compounds outside 14-191) lay in the range of 1 to 1000 nM.

On to `O=C(N1CC(=Cc2c(F)cc(F)cc2F)C1)N1N=CCC1c1cc(F)cc(F)c1` (stereo not drawn) [Compound 304, (5-(3,5-difluorophenyl)-4,5-dihydro-1H-pyrazol-1-yl)(3-(2,4,6-trifluorobenzylidene)azetidin-1-yl)methanone], for which the concentration giving a half-maximal response (EC50) (compounds outside 14-191) was 1 to 1000 nM.

In the case of `O=C(N1CC(=Cc2ccc3cc[nH]c3c2)C1)N1N=CCC1c1cc(F)cc(F)c1` (stereo not drawn) [Compound 184], the EC50 under setting [1] was 1 to 1000 nM.

Values taken from patent publication US12662469B2 (SIRONAX LTD, priority 2018, dated 2026).
